Source: ChEMBL document CHEMBL1135604, “Geometry-affinity relationships of the selective serotonin receptor ligand 9-(aminomethyl)-9,10-dihydroanthracene” (J Med Chem, 2002)

target: 5-hydroxytryptamine receptor 2A (Rattus norvegicus) (UniProt P14842); experiment: Binding affinity was performed using [3H]ketanserin as the radioligand and stably transfected NIH3T3 cells expressing the 5-hydroxytryptamine 2A receptor (GF-62 cells).
Sequence (P14842 whole entry, looked up): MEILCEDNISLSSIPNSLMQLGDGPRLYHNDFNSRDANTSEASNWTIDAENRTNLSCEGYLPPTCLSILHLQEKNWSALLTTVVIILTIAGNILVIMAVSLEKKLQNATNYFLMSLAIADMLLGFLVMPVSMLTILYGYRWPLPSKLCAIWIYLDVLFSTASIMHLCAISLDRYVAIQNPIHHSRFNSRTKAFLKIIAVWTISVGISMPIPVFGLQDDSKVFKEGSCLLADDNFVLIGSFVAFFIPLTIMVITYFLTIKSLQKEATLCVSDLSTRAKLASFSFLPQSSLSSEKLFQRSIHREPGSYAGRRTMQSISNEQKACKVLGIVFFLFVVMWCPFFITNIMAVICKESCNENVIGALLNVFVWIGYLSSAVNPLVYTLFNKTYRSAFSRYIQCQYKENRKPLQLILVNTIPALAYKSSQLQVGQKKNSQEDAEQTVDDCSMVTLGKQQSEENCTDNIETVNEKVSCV

| Structure (SMILES) | Ki |
| --- | --- |
| NCC12CC(c3ccccc31)c1ccccc12 | 6780 nM |
| NCCc1ccccc1Cc1ccccc1 | 1810 nM |
| CC1(C)c2ccccc2C(CN)c2ccccc21 | 330 nM |
| NCC1CC2c3ccccc3C1c1ccccc12 (centres undefined) | 9530 nM |
| NC1CC2c3ccccc3C1c1ccccc12 (centres undefined) | > 10000 nM |
| NCC1c2ccccc2CCc2ccccc21 | 112 nM |
| c1ccc2c(c1)Cc1cccc3c1C2CNC3 (centres undefined) | 296 nM |
| CC(N)C1c2ccccc2Cc2ccccc21 (centres undefined) | 193 nM |
| c1ccc2c(c1)C1c3ccccc3C2C2NC12 (centres undefined) | > 10000 nM |
| NCc1c2ccccc2cc2ccccc12 | 2300 nM |
| CC1(CN)c2ccccc2Cc2ccccc21 | 65 nM |
| NCC1Cc2ccccc2-c2ccccc21 (centres undefined) | 711 nM |
| NCC12CCC(c3ccccc31)c1ccccc12 | 770 nM |
| NCC1CCCc2ccccc21 (centres undefined) | > 10000 nM |
